Results reported in patent US20210221866A1, “PROTEASE-RESISTANT LIPIDATED GLP-1 ANALOGS” (MEDIMMUNE LIMITED, priority 2015, published 2021).
Like-named read-outs stand apart in the source and are kept apart here. Numbered stars: 1 amine (or outer) side, 2 acyl side, 3 side chain; on linkers, the order of the positions; unused ones are H or OH. Square brackets hold non-standard residues; d marks the D form. Side chains are listed from the residue outwards. Peptide text beside a SMILES is read from it. * marks the point of attachment. γGlu = O=C(O)[C@H](CCC(=O)[*:2])N[*:1]; Stearoyl = CCCCCCCCCCCCCCCCCC(=O)*; Palmitoyl = CCCCCCCCCCCCCCCC(=O)*; αMeF = C[C@](N)(Cc1ccccc1)C(=O)O; Myristoyl = CCCCCCCCCCCCCC(=O)*; αMeK = C[C@](N)(CCCCN)C(=O)O; Lauroyl = CCCCCCCCCCCC(=O)*; αMeS = C[C@](N)(CO)C(=O)O; AEEA = NCCOCCOCC(=O)O; Aib = CC(C)(N)C(=O)O

Key:
[1] = target: T1, human glucagon receptor (GCGR) (Homo sapiens, UniProt P47871); assay: cAMP assay, human GCGR cells; type: cell-based; details: Table 9, bis-lipidated peptides
T1 construct: expressed in transfected cells; host or cells: HEK293 cells or CHO cells
Protocol: (§1) Sample dilutions are made in duplicate.
(§2) A frozen cryo-vial of cells expressing the receptor of interest is thawed rapidly in a water-bath, transferred to pre-warmed assay buffer and spun at 240×g for 5 minutes. Cells are re-suspended in assay buffer at a batch-dependent optimized concentration (e.g. hGCGR cells at 2×10^5 cells/ml, hGLP-1R and hGIPR cells at 1×10^5 cells/ml).
(§3) To this, 5 μL cell suspension is added and the plates incubated at room temperature for 30 minutes.
(§4) cAMP levels are measured using a commercially available cAMP dynamic 2 HTRF kit (Cisbio, Cat #62AM4PEJ), following the two step protocol as per manufacturer's recommendations. In brief; anti-cAMP cryptate (donor fluorophore) and cAMP-d2 (acceptor fluorophore) are made up separately by diluting each 1/20 in conjugate & lysis buffer provided in the kit. 5 μL anti-cAMP cryptate is added to wells of the assay plate, and 5 μL cAMP-d2 is added to wells except non-specific binding (NSB) wells, to which conjugate and lysis buffer are added. […] EC50 values of the synthetic peptides determined in cAMP assays are then determined.
(§5) Data is transformed to % Delta F as described in the manufacturer's guidelines and analyzed by 4-parameter logistic fit to determine EC50 values. […] To compare the balance of activities at the GLP-1R and GCGR between different peptides and across different conditions, these can be correlated, where the EC50's are related to those of comparator peptides.

[2] = target: T2, human glucose-dependent insulinotropic peptide receptor (GIPR) (Homo sapiens, UniProt P48546); assay: cAMP assay, human GIPR cells; type: cell-based; details: Table 9, bis-lipidated peptides
T2 construct: expressed in transfected cells; host or cells: HEK293 cells or CHO cells
T2 sequence (P48546 22-466): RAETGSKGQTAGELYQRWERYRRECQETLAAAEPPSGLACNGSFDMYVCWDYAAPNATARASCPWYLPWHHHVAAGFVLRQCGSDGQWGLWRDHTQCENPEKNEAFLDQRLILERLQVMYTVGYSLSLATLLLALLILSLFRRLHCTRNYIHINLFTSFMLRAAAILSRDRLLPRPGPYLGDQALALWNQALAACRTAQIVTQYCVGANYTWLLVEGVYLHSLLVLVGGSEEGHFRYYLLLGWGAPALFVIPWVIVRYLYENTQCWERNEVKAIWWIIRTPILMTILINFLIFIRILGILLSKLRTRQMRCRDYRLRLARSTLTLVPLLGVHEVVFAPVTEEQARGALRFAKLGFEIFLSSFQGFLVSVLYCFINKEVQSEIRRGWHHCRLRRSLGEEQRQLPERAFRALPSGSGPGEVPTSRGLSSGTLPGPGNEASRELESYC
Protocol: as §1, §2, §3, §4, §5

[3] = first replicate, read-out: Primary assay EC50 Gluc-R (n1)
[4] = second replicate, read-out: Primary assay EC50 Gluc-R (n2)
[5] = first replicate, read-out: Primary assay EC50 GIP-R (n1)
[6] = second replicate, read-out: Primary assay EC50 GIP-R (n2)

T1 sequence (P47871 26-477): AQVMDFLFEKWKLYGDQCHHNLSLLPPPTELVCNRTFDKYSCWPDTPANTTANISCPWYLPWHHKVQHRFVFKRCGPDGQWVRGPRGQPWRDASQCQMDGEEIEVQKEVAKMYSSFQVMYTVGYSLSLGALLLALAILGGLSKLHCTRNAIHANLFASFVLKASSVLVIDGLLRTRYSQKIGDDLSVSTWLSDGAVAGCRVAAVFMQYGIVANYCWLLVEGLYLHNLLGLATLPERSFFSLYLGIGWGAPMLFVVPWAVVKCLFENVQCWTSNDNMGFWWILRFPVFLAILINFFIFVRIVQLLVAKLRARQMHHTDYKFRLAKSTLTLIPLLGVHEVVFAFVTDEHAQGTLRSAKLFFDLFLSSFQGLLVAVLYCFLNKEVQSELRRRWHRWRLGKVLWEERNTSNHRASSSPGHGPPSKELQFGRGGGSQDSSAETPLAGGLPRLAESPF

Row | SMILES | EC50 [1, 3] [nM] | EC50 [1, 4] [nM] | EC50 [2, 5] [nM] | EC50 [2, 6] [nM]
1 | CCCCCCCCCCCC(=O)N[C@@H](CCC(=O)NCCOCCOCC(=O)NCCOCCOCC(=O)NCCCC[C@H](NC(=O)[C@H](C)NC(=O)[C@@H](NC(=O)[C@H](Cc1ccccc1)NC(=O)[C@H](CCC(=O)O)NC(=O)[C@](C)(CCCCN)NC(=O)[C@H](C)NC(=O)[C@H](C)NC(=O)[C@H](CCC(=O)O)NC(=O)CNC(=O)[C@H](CCC(=O)O)NC(=O)[C@H](CC(C)C)NC(=O)[C@H](Cc1ccc(O)cc1)NC(=O)[C@H](CO)NC(=O)[C@H](CO)NC(=O)[C@H](CCCCNC(=O)COCCOCCNC(=O)COCCOCCNC(=O)CC[C@H](NC(=O)CCCCCCCCCCC)C(=O)O)NC(=O)[C@H](CC(=O)O)NC(=O)[C@H](CO)NC(=O)[C@@H](NC(=O)[C@](C)(Cc1ccccc1)NC(=O)[C@H](CO)NC(=O)CNC(=O)[C@H](CCC(=O)O)NC(=O)C(C)(C)NC(=O)[C@@H](N)Cc1c[nH]cn1)[C@@H](C)O)[C@@H](C)CC)C(=O)N[C@H](C(=O)N[C@H](C(=O)N[C@@H](CCC(=O)O)C(=O)NCC(=O)NCC(N)=O)C(C)C)C(C)C)C(=O)O [compound 257] (H-H[Aib]EGS[αMeF]TSDK([AEEA-AEEA-γGlu-Lauroyl])SSYLEGEAA[αMeK]EFIAK([AEEA-AEEA-γGlu-Lauroyl])VVEGG-NH2) | ≥ 22.8 | ≥ 22.8 | ≥ 22.8 | ≥ 22.8
2 | CCCCCCCCCCCC(=O)N[C@@H](CCC(=O)NCCOCCOCC(=O)NCCOCCOCC(=O)NCCCC[C@H](NC(=O)[C@H](CC(=O)O)NC(=O)[C@H](CO)NC(=O)[C@@H](NC(=O)[C@](C)(Cc1ccccc1)NC(=O)[C@H](CO)NC(=O)CNC(=O)[C@H](CCC(=O)O)NC(=O)C(C)(C)NC(=O)[C@@H](N)Cc1c[nH]cn1)[C@@H](C)O)C(=O)N[C@@H](CO)C(=O)N[C@@H](CO)C(=O)N[C@@H](Cc1ccc(O)cc1)C(=O)N[C@@H](CC(C)C)C(=O)N[C@@H](CCC(=O)O)C(=O)NCC(=O)N[C@@H](CCC(=O)O)C(=O)N[C@@H](C)C(=O)N[C@@H](C)C(=O)N[C@@](C)(CCCCN)C(=O)N[C@@H](CCC(=O)O)C(=O)N[C@@H](Cc1ccccc1)C(=O)N[C@H](C(=O)N[C@@H](C)C(=O)N[C@@H](Cc1c[nH]c2ccccc12)C(=O)N[C@@H](CCCCNC(=O)COCCOCCNC(=O)COCCOCCNC(=O)CC[C@H](NC(=O)CCCCCCCCCCC)C(=O)O)C(=O)N[C@H](C(=O)N[C@@H](CCC(=O)O)C(=O)NCC(=O)NCC(N)=O)C(C)C)[C@@H](C)CC)C(=O)O [compound 258] (H-H[Aib]EGS[αMeF]TSDK([AEEA-AEEA-γGlu-Lauroyl])SSYLEGEAA[αMeK]EFIAWK([AEEA-AEEA-γGlu-Lauroyl])VEGG-NH2) | ≥ 22.3 | ≥ 22.3 | ≥ 22.3 | ≥ 22.3
3 | CCCCCCCCCCCC(=O)N[C@@H](CCC(=O)NCCOCCOCC(=O)NCCOCCOCC(=O)NCCCC[C@H](NC(=O)[C@H](CO)NC(=O)[C@](C)(CO)NC(=O)[C@@H](NC(=O)[C@H](CC(=O)O)NC(=O)[C@H](CO)NC(=O)[C@@H](NC(=O)[C@](C)(Cc1ccccc1)NC(=O)[C@H](CO)NC(=O)CNC(=O)[C@H](CCC(=O)O)NC(=O)C(C)(C)NC(=O)[C@@H](N)Cc1c[nH]cn1)[C@@H](C)O)C(C)C)C(=O)N[C@@H](CC(C)C)C(=O)N[C@@H](CCC(=O)O)C(=O)NCC(=O)N[C@@H](CCC(=O)O)C(=O)N[C@@H](C)C(=O)N[C@@H](C)C(=O)N[C@@](C)(CCCCN)C(=O)N[C@@H](CCC(=O)O)C(=O)N[C@@H](Cc1ccccc1)C(=O)N[C@H](C(=O)N[C@@H](CCCCNC(=O)COCCOCCNC(=O)COCCOCCNC(=O)CC[C@H](NC(=O)CCCCCCCCCCC)C(=O)O)C(=O)N[C@@H](Cc1c[nH]c2ccccc12)C(=O)N[C@H](C(=O)N[C@H](C(=O)N[C@@H](CCC(=O)O)C(=O)NCC(=O)NCC(N)=O)C(C)C)C(C)C)[C@@H](C)CC)C(=O)O [compound 262] (H-H[Aib]EGS[αMeF]TSDV[αMeS]SK([AEEA-AEEA-γGlu-Lauroyl])LEGEAA[αMeK]EFIK([AEEA-AEEA-γGlu-Lauroyl])WVVEGG-NH2; N-terminus assumed) | ≥ 22.5 | ≥ 22.5 | ≥ 22.5 | ≥ 22.5
4 | CCCCCCCCCCCCCC(=O)N[C@@H](CCC(=O)NCCOCCOCC(=O)NCCOCCOCC(=O)NCCCC[C@H](NC(=O)[C@H](C)NC(=O)[C@@H](NC(=O)[C@](C)(Cc1ccccc1)NC(=O)[C@H](CCC(=O)O)NC(=O)[C@](C)(CCCCN)NC(=O)[C@H](C)NC(=O)[C@H](C)NC(=O)[C@H](CCC(=O)O)NC(=O)CNC(=O)[C@H](CCC(=O)O)NC(=O)[C@H](CC(C)C)NC(=O)[C@H](CCCCNC(=O)COCCOCCNC(=O)COCCOCCNC(=O)CC[C@H](NC(=O)CCCCCCCCCCCCC)C(=O)O)NC(=O)[C@H](CO)NC(=O)[C@](C)(CO)NC(=O)[C@@H](NC(=O)[C@H](CC(=O)O)NC(=O)[C@H](CO)NC(=O)[C@@H](NC(=O)[C@](C)(Cc1ccccc1)NC(=O)[C@H](CO)NC(=O)CNC(=O)[C@H](CCC(=O)O)NC(=O)C(C)(C)NC(=O)[C@@H](N)Cc1c[nH]cn1)[C@@H](C)O)C(C)C)[C@@H](C)CC)C(=O)N[C@H](C(=O)N[C@H](C(=O)N[C@@H](CCC(=O)O)C(=O)NCC(=O)NCC(N)=O)C(C)C)C(C)C)C(=O)O [compound 408] (H-H[Aib]EGS[αMeF]TSDV[αMeS]SK([AEEA-AEEA-γGlu-Myristoyl])LEGEAA[αMeK]E[αMeF]IAK([AEEA-AEEA-γGlu-Myristoyl])VVEGG-NH2) | ≥ 21.5 | ≥ 21.5 | ≥ 21.5 | ≥ 21.5
5 | CCCCCCCCCCCCCCCC(=O)N[C@@H](CCC(=O)NCCOCCOCC(=O)NCCOCCOCC(=O)NCCCC[C@H](NC(=O)[C@H](C)NC(=O)[C@@H](NC(=O)[C@](C)(Cc1ccccc1)NC(=O)[C@H](CCC(=O)O)NC(=O)[C@](C)(CCCCN)NC(=O)[C@H](C)NC(=O)[C@H](C)NC(=O)[C@H](CCC(=O)O)NC(=O)CNC(=O)[C@H](CCC(=O)O)NC(=O)[C@H](CC(C)C)NC(=O)[C@H](CCCCNC(=O)COCCOCCNC(=O)COCCOCCNC(=O)CC[C@H](NC(=O)CCCCCCCCCCCCCCC)C(=O)O)NC(=O)[C@H](CO)NC(=O)[C@](C)(CO)NC(=O)[C@@H](NC(=O)[C@H](CC(=O)O)NC(=O)[C@H](CO)NC(=O)[C@@H](NC(=O)[C@](C)(Cc1ccccc1)NC(=O)[C@H](CO)NC(=O)CNC(=O)[C@H](CCC(=O)O)NC(=O)C(C)(C)NC(=O)[C@@H](N)Cc1c[nH]cn1)[C@@H](C)O)C(C)C)[C@@H](C)CC)C(=O)N[C@H](C(=O)N[C@H](C(=O)N[C@@H](CCC(=O)O)C(=O)NCC(=O)NCC(N)=O)C(C)C)C(C)C)C(=O)O [compound 409] (H-H[Aib]EGS[αMeF]TSDV[αMeS]SK([AEEA-AEEA-γGlu-Palmitoyl])LEGEAA[αMeK]E[αMeF]IAK([AEEA-AEEA-γGlu-Palmitoyl])VVEGG-NH2; N-terminus assumed) | ≥ 21.5 | ≥ 21.5 | ≥ 21.5 | ≥ 21.5
6 | CCCCCCCCCCCCCCCCCC(=O)N[C@@H](CCC(=O)NCCOCCOCC(=O)NCCOCCOCC(=O)NCCCC[C@H](NC(=O)[C@H](C)NC(=O)[C@@H](NC(=O)[C@](C)(Cc1ccccc1)NC(=O)[C@H](CCC(=O)O)NC(=O)[C@](C)(CCCCN)NC(=O)[C@H](C)NC(=O)[C@H](C)NC(=O)[C@H](CCC(=O)O)NC(=O)CNC(=O)[C@H](CCC(=O)O)NC(=O)[C@H](CC(C)C)NC(=O)[C@H](CCCCNC(=O)COCCOCCNC(=O)COCCOCCNC(=O)CC[C@H](NC(=O)CCCCCCCCCCCCCCCCC)C(=O)O)NC(=O)[C@H](CO)NC(=O)[C@](C)(CO)NC(=O)[C@@H](NC(=O)[C@H](CC(=O)O)NC(=O)[C@H](CO)NC(=O)[C@@H](NC(=O)[C@](C)(Cc1ccccc1)NC(=O)[C@H](CO)NC(=O)CNC(=O)[C@H](CCC(=O)O)NC(=O)C(C)(C)NC(=O)[C@@H](N)Cc1c[nH]cn1)[C@@H](C)O)C(C)C)[C@@H](C)CC)C(=O)N[C@H](C(=O)N[C@H](C(=O)N[C@@H](CCC(=O)O)C(=O)NCC(=O)NCC(N)=O)C(C)C)C(C)C)C(=O)O [compound 410] (H-H[Aib]EGS[αMeF]TSDV[αMeS]SK([AEEA-AEEA-γGlu-Stearoyl])LEGEAA[αMeK]E[αMeF]IAK([AEEA-AEEA-γGlu-Stearoyl])VVEGG-NH2; N-terminus assumed) | ≥ 21.5 | ≥ 21.5 | ≥ 21.5 | ≥ 21.5
